Assay results published in US12390425B1, “Use of tyrosol as a physiological enhancer of creatine and its application in continuous high intensity exercise” (MolTek Nutrition Co., Ltd, priority 2024, dated 2025).

What was measured:
Type in all cases: in vivo
[1] = system: skeletal muscle of mice; assay: Phosphocreatine and creatine levels in dissected leg skeletal muscle after continuous interval electrical stimulation (Experiment 1); conditions: for Creatine (CR) level in skeletal muscle / Phosphocreatine (PCr) level in skeletal muscle / Total creatine (TCr) level in skeletal muscle: 2 weeks diet: CR 5% creatine monohydrate, Ty+CR 1% tyrosol and 5% creatine monohydrate, mean±SE; for Total creatine (TCr) level in skeletal muscle: sum of PCr and CR
Experimental: Animal Experiment: Thirty 8-week-old mice were prepared and acclimated to the laboratory environment for one week before being randomly divided into three groups. Control Group: Normal diet with no added active ingredients, serving as the control group. CR Group: Normal diet supplemented with 5% creatine monohydrate. Ty+CR Group: Normal diet supplemented with 1% tyrosol and 5% creatine monohydrate.
After two weeks of feeding, the mice were anesthetized, and the leg skeletal muscles were dissected, showing clear connective tissue without blood. For muscle contraction tests via electrical stimulation, the muscles were first incubated in a specific physiological buffer solution for 10 minutes to recover from dissection. The muscles were then clamped with aluminum forceps and stimulated using platinum electrodes and a capacitor alternating polarity discharge.
The muscles were subjected to 250 ms electrical stimulation with six intervals, each interval progressively shortened from 4 s to 1 s. After six interval stimulations, a 1-minute observation period followed before the next round, totaling four rounds. The left and right leg muscles of each mouse were labeled, and subjected to the aforementioned electrical stimulation test.
Phosphocreatine (PCr) and creatine (CR) levels were immediately measured in the dissected right leg muscles after the electrical stimulation test. The dissected left leg muscles of all groups were measured for phosphocreatine and creatine levels 5 minutes after the test. Total creatine (TCr) levels were the sum of phosphocreatine and creatine levels. Standard fluorescence assay was used to determine phosphocreatine and creatine levels in muscle samples extracted with perchloric acid precipitation.
Note: Values are expressed as mean±SE, in mmol/kg dry weight.

[2] = system: mice; assay: Grip strength test during continuous high-intensity exercise (Experiment 2); conditions: for Percentage change of muscle strength (grip strength relative to first exercise): gavage daily 4 weeks: Ty 75 mg/kg tyrosol, CR 260 mg/kg creatine monohydrate, Ty+CR 75 mg/kg+260 mg/kg
Experimental: Animal Experiment 1: Six-week-old mice were used. After one week of acclimation to the environment, the mice were randomly divided into the following groups:
(§1) Control Group: Normal diet, serving as the control group.
(§2) Ty Group: Normal diet, with 75 mg/kg tyrosol administered by gavage daily.
(§3) CR Group: Normal diet, with 260 mg/kg creatine monohydrate administered by gavage daily.
(§4) Ty+CR Group: Normal diet, with 75 mg/kg tyrosol+260 mg/kg creatine monohydrate administered by gavage daily.
(§5) This regimen continued for 4 weeks. The first grip strength test was conducted 30 minutes after the last gavage. The grip strength of the mice's limbs was measured using a grip strength meter. After a 1-hour rest, the mice underwent the first exhaustive swimming exercise. […] The mice were then placed in a weighted swimming tank at a water temperature of 30±1° C. for the exhaustive swimming test. Exhaustion was considered if the mice touched the bottom of the tank three consecutive times within 30 seconds. The detector recorded the mice's bottom-touching instances, and upon determining exhaustion, the swimming tank automatically lifted the mice, recording the exhaustive swimming time.
(§6) 24 hours after the first swimming exercise, the second grip strength test and exhaustive swimming exercise were conducted using the same methods, recording grip strength data and exhaustive swimming time. The third and fourth grip strength tests and exhaustive swimming exercises were conducted 24 hours after the previous exercise, recording the respective data. The gavage regimen remained unchanged during the intervals.
Note: The data compared each group's grip strength in subsequent exercises to their grip strength in the first exercise, reflected the difference in grip strength from the initial value.

[3] = system: mice; assay: Weighted exhaustive swimming test during continuous high-intensity exercise (Experiment 2); conditions: for Percentage change of exhaustive exercise time (relative to first exercise): gavage daily 4 weeks: Ty 75 mg/kg tyrosol, CR 260 mg/kg creatine monohydrate, Ty+CR 75 mg/kg+260 mg/kg; for Exhaustive swimming exercise time compared to control group, FIG. 2 / Trend of exhaustive swimming exercise time during continuous exercise, FIG. 2: Ty 75 mg/kg, CR 260 mg/kg, Ty+CR 75+260 mg/kg; for Exhaustive swimming exercise time compared to control group, FIG. 2: 4 weeks; for Trend of exhaustive swimming exercise time during continuous exercise, FIG. 2: four exercises 24 h apart
Experimental: After one week of acclimation to the environment, the mice were randomly divided into the following groups:
as §1, §2, §3, §4, §5, §6
Note: The data compared each group's exhaustive exercise time in subsequent exercises to their exhaustive exercise time in the first exercise, reflected the difference in exhaustive exercise time from the initial value.

[4] = system: mice; assay: Grip strength test during continuous high-intensity exercise (Experiment 3)
Experimental: (§7) Animal Experiment 2: Six-week-old mice were used. After one week of acclimation to the environment, the mice were randomly divided into the following groups:
as §1
(§8) Ty 1 Group: Normal diet, with 2.6 mg/kg tyrosol administered by gavage daily.
(§9) CR 1-3 Groups: Normal diet, with 65 mg/kg, 390 mg/kg, and 1300 mg/kg creatine monohydrate administered by gavage daily.
(§10) Ty+CR 1-4 Groups: Normal diet, with 2.6 mg/kg tyrosol+65 mg/kg creatine monohydrate, 130 mg/kg tyrosol+130 mg/kg creatine monohydrate, 390 mg/kg tyrosol+1300 mg/kg creatine monohydrate, and 2.6 mg/kg tyrosol+1300 mg/kg creatine monohydrate administered by gavage daily.
With the exception of groups Ty 1, CR 1, and Ty+CR 1 which were fed for 8 weeks, all other dosing groups were fed for 4 weeks, with one daily gavage. Groups CR 3, Ty+CR 3, and Ty+CR 4 received their daily gavage dose in two separate administrations each day. Half of the control group was fed for 4 weeks, and the other half for 8 weeks. The first grip strength test was conducted 30 minutes after the last gavage, followed by the first exhaustive swimming exercise after a 1-hour rest. Grip strength and swimming exercise methods were the same as previously described. 24 hours after the first swimming exercise, the second grip strength test and exhaustive swimming exercise were conducted using the same methods, recording grip strength data and exhaustive swimming time. The third and fourth grip strength tests and exhaustive swimming exercises were conducted 24 hours after the previous exhaustive swimming exercise, recording grip strength data and exhaustive swimming time. Groups CR 3 and Ty+CR 4 underwent up to the eighth grip strength test and exhaustive swimming exercise, maintaining the same exercise methods. During the intervals, the gavage regimen for each group remained unchanged.

[5] = system: mice; assay: Weighted exhaustive swimming test during continuous high-intensity exercise (Experiment 3)
Experimental: as §7, §1, §8, §9, §10
With the exception of groups Ty 1, CR 1, and Ty+CR 1 which were fed for 8 weeks, all other dosing groups were fed for 4 weeks, with one daily gavage. Groups CR 3, Ty+CR 3, and Ty+CR 4 received their daily gavage dose in two separate administrations each day. Half of the control group was fed for 4 weeks, and the other half for 8 weeks. The first grip strength test was conducted 30 minutes after the last gavage, followed by the first exhaustive swimming exercise after a 1-hour rest. Grip strength and swimming exercise methods were the same as previously described. […]

[6] = system: mice; assay: Grip strength test during continuous high-intensity exercise (Experiment 2); conditions: first grip strength test; Ty 75 mg/kg, CR 260 mg/kg, Ty+CR 75+260 mg/kg, 4 weeks
[7] = 5 min later after electrical stimulation
[8] = immediately after electrical stimulation
[9] = CR 1: 65 mg/kg creatine monohydrate, Ty+CR 1: 2.6 mg/kg tyrosol+65 mg/kg creatine monohydrate, 8 weeks

Compound | Percentage change of muscle strength (grip strength relative to first exercise) ([2]; First exercise) | Percentage change of muscle strength (grip strength relative to first exercise) ([2]; Fourth exercise) | Percentage change of muscle strength (grip strength relative to first exercise) ([2]; Second exercise) | Percentage change of muscle strength (grip strength relative to first exercise) ([2]; Third exercise) | Percentage change of exhaustive exercise time (relative to first exercise) ([3]; Fourth exercise) | Percentage change of exhaustive exercise time (relative to first exercise) ([3]; Second exercise) | Percentage change of exhaustive exercise time (relative to first exercise) ([3]; Third exercise) | Exhaustive swimming exercise time compared to control group, FIG. 2 [3] | Trend of exhaustive swimming exercise time during continuous exercise, FIG. 2 [3] | Muscle strength (grip strength) compared to control group, FIG. 1 [6] | other results
CN(CC(=O)O)C(=N)N.O [CR, creatine monohydrate] | 1 | 76.10% | 89.24% | 83.81% | 81.88% | 95.26% | 88.10% | did not improve the endurance of the mice at the beginning | declined to varying degrees | significantly increased compared to the control group | Creatine (CR) level in skeletal muscle [1, 7]: 22.7 ± 2.8 mmol/kg dry weight; Phosphocreatine (PCr) level in skeletal muscle [1, 7]: 39.7 ± 2.2 mmol/kg dry weight; Total creatine (TCr) level in skeletal muscle [1, 7]: 62.4 ± 3.0 mmol/kg dry weight; Decrease of creatine levels 5 minutes after end of muscle contraction (creatine conversion) ([1]; immediate vs 5-min-later data within each group): 53.86%; Creatine (CR) level in skeletal muscle [1, 8]: 49.2 ± 3.7 mmol/kg dry weight; Phosphocreatine (PCr) level in skeletal muscle [1, 8]: 13.4 ± 1.2 mmol/kg dry weight; Total creatine (TCr) level in skeletal muscle [1, 8]: 62.6 ± 4.0 mmol/kg dry weight; Levels of creatine, phosphocreatine and total creatine compared to control group ([1]; immediately after stimulation or 5 minutes later): higher than those in the control group; Trend of muscle strength (grip strength) in subsequent exercises, FIG. 1 ([2]; four exercises 24 h apart, CR 260 mg/kg, Ty+CR 75+260 mg/kg): decline rate in the creatine group was also rapid; Percentage change of exhaustive exercise time (relative to first exercise) ([3]; First exercise): 1; Muscle strength (grip strength) compared to control group, FIG. 4 [4, 9]: significantly increased the muscle strength of the mice; Muscle strength (grip strength) compared to control group, FIG. 3 ([4]; CR 2: 390 mg/kg creatine monohydrate, Ty+CR 2: 130 mg/kg tyrosol+130 mg/kg creatine monohydrate, 4 weeks): significantly higher than that in the control group; Trend of muscle strength (grip strength) during continuous exercise, FIG. 3 ([4]; CR 2: 390 mg/kg creatine monohydrate, Ty+CR 2: 130 mg/kg tyrosol+130 mg/kg creatine monohydrate, four exercises): marked decline in muscle strength; Endurance time (exhaustive swimming) compared to control group, FIG. 6 [5, 9]: did not improve the endurance time of mice; Endurance (exhaustive swimming time), FIG. 5 ([5]; CR 2: 390 mg/kg creatine monohydrate, 4 weeks): able to enhance the endurance of mice and prolong exercise time
OCCc1ccc(O)cc1 [Ty, tyrosol] | 1 | 85.05% | 97.40% | 96.55% | 88.45% | 97.13% | 94.54% | significantly higher than that of the control group mice | declined to varying degrees | did not show a significant increase in muscle strength | –
